From patent US20010053796A1, “Delta-aminolevulinic acid for prevention and treatment of infection microorganisms and parasite” (priority 2000, published 2001)

Assays:
Staphylococcus epidermis [1] = test: Prevention effect for artificial infection (abdominal injection of bacteria); type: in vivo, Bastardhalibut; conditions: for Mortality during Cultivation: dead of 20 fish
Protocol: The water temperature was maintained at 20° C. (±2° C. ) throughout the experiment. […]
Bastardhalibut and Sebastes schlegeli were infected by […] Staphylococcus epidermis through abdominal injection with the same method of fish breeding; δ-aminolevulinic acid treatment and artificial carried out in Experiment 1 and 2. Each experimental fish was moved to fish tanks for monitoring and monitored for mortality according to infection for 2 weeks. […] The treated group, with δ-aminolevulinic acid by tank administraion method and oral administration method, has shown high viability.

Edwardsiella tarda [2] = test: Treatment effect of infected fry by digestion in breeding water; type: in vivo, Bastardhalibut; conditions: 50 fish
Protocol: (§1) To be used as experimental fish in this example, fry of Bastardhalibut and Sebastes schlegeli (mean body weight 2 g), 50 per each breeding tank, were preliminary-bred for 1 week and stabilized. […] The artificial infection methods were carried out by the digestion method. Pathogenic organisms were applied into fish tanks and digested in seawater, wherein the concentration of organisms has adjusted to 10^4 CFU/mL for an hour, and infected. Treatment conditions are as follows. After artificial infection. Infected fishes were moved to fish tanks and kept in the infection period for 3 days. On the fourth day of infection, 0.1, 1.0, 5 and 10 ppm δ-aminolevulinic acid were introduced to use as breeding water. Fish was bred in aerobic condition for 1˜24 hours without exchanging water and then, bred for 2 weeks after exchanging with clean seawater. Then, they were monitored to check for the mortality of fish according to infection. In the control groups, after each bacteria were identically introduced through the digestion method, mortality of Bastardhalibut and Sebastes schlegeli according to bacteria infection was identified while breeding with non-treated condition of δ-aminolevulinic acid. As a result of this experiment, δ-aminolevulinic acid-treated groups have shown high viability in both Bastardhalibut (Table 12˜Table 15) and Sebastes schlegeli (Table 16˜Table 19).

Pseudomonas sp. = test: as above; type: in vivo, Bastardhalibut; conditions: 50 fish
Protocol: as §1

Staphylococcus epidermis [3] = test: as above; type: in vivo, Bastardhalibut; conditions: 50 fish
Protocol: as §1

Streptococcus sp. = test: as above; type: in vivo, Bastardhalibut; conditions: 50 fish
Protocol: as §1

Vibrio anguillarum = test: as above; type: in vivo, Bastardhalibut; conditions: 50 fish
Protocol: as §1

Iridovirus = test: Treatment effect of virus-infected fish; type: in vivo, Pagrus major; conditions: for mortality during 10 days: 30 fish
Text: In this present example, as carried out in Experiment 2 of Example 3, from the result that inhibition effect of virus infection in vitro by δ-aminolevulinic acid treatment was ascertained, fish whose diseases were in progress by virus infection, decrease in the mortality of infected fish body was ascertained when treated with δ-aminolevulinic acid. Pagrus major diagnosed by the PCR method among a school of Iridovirus-infected fish from a fish farm nearby Yeosu, 30 of each were separated and contained in […]. They were divided to group A, B, C and control group. Temporary changes in mortality was ascertained in 10 ppm δ-aminolevulinic acid-treated A group, 1.0 ppm δ-aminolevulinic acid-treated B group, 0.1 ppm δ-aminolevulinic acid-treated C group and untreated control group by using δ-aminolevulinic acid produced by the inventor. Each δ-aminolevulinic acid-treated group was treated 3 times in […] and 10 days results were reported. In the case of actual fish farms, the mortality by virus infection reaches up to 70%. However, as shown in the result of infected fish of Table 28, in the present experimental condition, cumulative mortality of infected fish without treatment has reached up to 50% until 10th day of experimental period. In δ-aminolevulinic acid-treated groups, low mortalities of 17%, 17% and 27% was shown in the condition of A, B and C groups during 10 days, respectively.

Edwardsiella tarda [4] = test: Treatment of Edwardsiella bacteria-infected fish in a fish farm; type: in vivo, flatfish
Text: Infected fish cultivated in the terrestrial fish tank were found in a fish farm, where flatfish (mean weight 11 g) were dying by spontaneous attack. The main source of infection was Edwardsiella tardaa. About 30˜40% of cumulative mortality per cultivating tank has shown after 5 days since the mortality started. […] On the first day, 0.1 ppm δ-aminolevulinic acid was digestion-treated in two tanks for 2 hrs and on the second and third day, 0.01 ppm δ-aminolevulinic acid was digested for 2 hrs. They were then observed, during the water was exchanged. δ-aminolevulinic acid digestion-treated tanks (about 3,000 fish) has maintained 40% cumulative mortality for 1 week after treatment, while δ-aminolevulinic acid non-treated tanks has shown 60% cumulative mortality and progressive disease was observed, more reporting 20% cumulative mortality thereafter.

[5] = digestion 0.1 ppm from 4th day of infection, Bastard halibut fry
[6] = digestion 1.0 ppm from 4th day of infection, Bastardhalibut fry
[7] = digestion 5.0 ppm from 4th day of infection, in Bastard halibut
[8] = digestion 10 ppm from 4th day of infection, Bastardhalibut fry
[9] = digestion 10 ppm from 4th day of infection

SMILES: NCC(=O)CCC(=O)O [δ-aminolevulinic acid]
- Viability (Staphylococcus epidermis [1]; orally, 0.1 ppm in feed): 50%
- Mortality during Cultivation (Staphylococcus epidermis [1]; orally, 0.1 ppm in feed): 10
- Viability (Staphylococcus epidermis [1]; orally, 1.0 ppm in feed): 55%
- Mortality during Cultivation (Staphylococcus epidermis [1]; orally, 1.0 ppm in feed): 9
- Viability (Staphylococcus epidermis [1]; orally, 10 ppm in feed): 70%
- Mortality during Cultivation (Staphylococcus epidermis [1]; orally, 10 ppm in feed): 6
- Viability (Staphylococcus epidermis [1]; orally, 100 ppm in feed): 80%
- Mortality during Cultivation (Staphylococcus epidermis [1]; orally, 100 ppm in feed): 4
- Viability (Staphylococcus epidermis [1]; to fish tanks, 0.01 ppm): 55%
- Mortality during Cultivation (Staphylococcus epidermis [1]; to fish tanks, 0.01 ppm): 9
- Viability (Staphylococcus epidermis [1]; to fish tanks, 0.1 ppm): 65%
- Mortality during Cultivation (Staphylococcus epidermis [1]; to fish tanks, 0.1 ppm): 7
- Viability (Staphylococcus epidermis [1]; to fish tanks, 1.0 ppm): 65%
- Mortality during Cultivation (Staphylococcus epidermis [1]; to fish tanks, 1.0 ppm): 7
- Viability (Staphylococcus epidermis [1]; to fish tanks, 10 ppm): 75%
- Mortality during Cultivation (Staphylococcus epidermis [1]; to fish tanks, 10 ppm): 5
- Viability (Edwardsiella tarda [2]; [5]): 54%
- Viability (Edwardsiella tarda [2]; [6]): 76%
- Viability (Edwardsiella tarda [2]; [7]): 86%
- Viability (Edwardsiella tarda [2]; [8]): 84%
- Viability (Pseudomonas sp.; [5]): 50%
- Viability (Pseudomonas sp.; [6]): 70%
- Viability (Pseudomonas sp.; [7]): 80%
- Viability (Pseudomonas sp.; [9]): 84%
- Viability (Staphylococcus epidermis [3]; [5]): 42%
- Viability (Staphylococcus epidermis [3]; [6]): 66%
- Viability (Staphylococcus epidermis [3]; [7]): 80%
- Viability (Staphylococcus epidermis [3]; [9]): 84%
- Viability (Streptococcus sp.; [5]): 46%
- Viability (Streptococcus sp.; [6]): 64%
- Viability (Streptococcus sp.; [7]): 84%
- Viability (Streptococcus sp.; [8]): 90%
- Viability (Vibrio anguillarum; [5]): 56%
- Viability (Vibrio anguillarum; [6]): 66%
- Viability (Vibrio anguillarum; digestion 5.0 ppm from 4th day of infection): 84%
- Viability (Vibrio anguillarum; [8]): 80%
- Viable Fish number According to Elapsed days After Treatment (Iridovirus; 0.1 ppm, day 0): 30
- Viable Fish number According to Elapsed days After Treatment (Iridovirus; 0.1 ppm, day 1): 25
- Viable Fish number According to Elapsed days After Treatment (Iridovirus; 0.1 ppm, day 2): 25
- Viable Fish number According to Elapsed days After Treatment (Iridovirus; 0.1 ppm, day 3): 23
- Viable Fish number According to Elapsed days After Treatment (Iridovirus; 0.1 ppm, day 4): 23
- Viable Fish number According to Elapsed days After Treatment (Iridovirus; 0.1 ppm, day 5): 23
- Viable Fish number According to Elapsed days After Treatment (Iridovirus; 0.1 ppm, day 6): 22
- Viable Fish number According to Elapsed days After Treatment (Iridovirus; 0.1 ppm, day 7): 22
- Viable Fish number According to Elapsed days After Treatment (Iridovirus; 0.1 ppm, day 8): 22
- Viable Fish number According to Elapsed days After Treatment (Iridovirus; 0.1 ppm, day 9): 22
- Viable Fish number According to Elapsed days After Treatment (Iridovirus; 0.1 ppm, day 10): 22
- Viable Fish number According to Elapsed days After Treatment (Iridovirus; 1.0 ppm, day 0): 30
- Viable Fish number According to Elapsed days After Treatment (Iridovirus; 1.0 ppm, day 1): 28
- Viable Fish number According to Elapsed days After Treatment (Iridovirus; 1.0 ppm, day 2): 26
- Viable Fish number According to Elapsed days After Treatment (Iridovirus; 1.0 ppm, day 3): 26
- Viable Fish number According to Elapsed days After Treatment (Iridovirus; 1.0 ppm, day 4): 26
- Viable Fish number According to Elapsed days After Treatment (Iridovirus; 1.0 ppm, day 5): 25
- Viable Fish number According to Elapsed days After Treatment (Iridovirus; 1.0 ppm, day 6): 25
- Viable Fish number According to Elapsed days After Treatment (Iridovirus; 1.0 ppm, day 7): 25
- Viable Fish number According to Elapsed days After Treatment (Iridovirus; 1.0 ppm, day 8): 25
- Viable Fish number According to Elapsed days After Treatment (Iridovirus; 1.0 ppm, day 9): 25
- Viable Fish number According to Elapsed days After Treatment (Iridovirus; 1.0 ppm, day 10): 25
- Viable Fish number According to Elapsed days After Treatment (Iridovirus; 10 ppm, day 0): 30
- Viable Fish number According to Elapsed days After Treatment (Iridovirus; 10 ppm, day 1): 28
- Viable Fish number According to Elapsed days After Treatment (Iridovirus; 10 ppm, day 2): 26
- Viable Fish number According to Elapsed days After Treatment (Iridovirus; 10 ppm, day 3): 26
- Viable Fish number According to Elapsed days After Treatment (Iridovirus; 10 ppm, day 4): 26
- Viable Fish number According to Elapsed days After Treatment (Iridovirus; 10 ppm, day 5): 26
- Viable Fish number According to Elapsed days After Treatment (Iridovirus; 10 ppm, day 6): 26
- Viable Fish number According to Elapsed days After Treatment (Iridovirus; 10 ppm, day 7): 25
- Viable Fish number According to Elapsed days After Treatment (Iridovirus; 10 ppm, day 8): 25
- Viable Fish number According to Elapsed days After Treatment (Iridovirus; 10 ppm, day 9): 25
- Viable Fish number According to Elapsed days After Treatment (Iridovirus; 10 ppm, day 10): 25
- mortality during 10 days (Iridovirus; A group, 10 ppm): 17%
- mortality during 10 days (Iridovirus; B group, 1.0 ppm): 17%
- mortality during 10 days (Iridovirus; C group, 0.1 ppm): 27%
- Cumulative mortality (Edwardsiella tarda [4]; digestion 0.1 ppm day 1, 0.01 ppm days 2 and 3, 2 hrs, maintained for 1 week after treatment): 40%
- Cumulative mortality (Edwardsiella tarda [4]; digestion-treated groups in progressive disease, end result (non-treated 80%)): about 40%
